Data set [1] in a line: Cytotoxicity against african green monkey Vero E6 cells after 72 hrs by trypan blue staining. Type of data set: cell-based. The settings on record: chlorocebus sabaeus.
The test system of data set [2] is Jurkat. The data set can be described thus: Cytotoxicity against human Jurkat cells up to 2000 uM after 48 hrs by trypan blue staining. Format: cell-based.
Data set [3] has as its system Human alphaherpesvirus 1. The data set can be described thus: Antiviral activity against HSV1 L2 infected in Vero E6 cells assessed as inhibition of virus-induced cytopathic effect after 48 hrs. Type of data set: functional, organism-based. The settings on record: Human alphaherpesvirus 1, L2, Vero.
Data set [4] concerns Human alphaherpesvirus 1. The data set can be described thus: Antiviral activity against acyclovir-resistant HSV1 L2 infected in Vero E6 cells assessed as inhibition of virus-induced cytopathic effect after 48 hrs. Format: functional, organism-based. The settings on record: Human alphaherpesvirus 1, L2, Vero.
A short description of data set [5]: Half life of the compound in KCl/KOH buffer at pH 12 assessed as acyclovir formation by TLC analysis. Format: physicochemical.
Data set [6] is described as follows: Half life of the compound in KCl/HCl buffer at pH 2 assessed as acyclovir monophosphate formation by TLC analysis. Type of data set: physicochemical.
Data set [7] is described as follows: Chemical stability of the compound in KCl/HCl buffer at pH 2 assessed as monoamidate formation by TLC analysis. Type of data set: physicochemical.
Data set [8] in a line: Half life of the compound in phosphate buffer at pH 7.4 assessed as acyclovir formation by TLC analysis. Type of data set: physicochemical.
The nature of data set [9]: Half life of the compound in KCl/KOH buffer at pH 12 assessed as acyclovir and acyclovir monophosphate formation by TLC analysis. Format: physicochemical.
The subject of data set [10] is Human immunodeficiency virus 1. The data set can be described thus: Antiviral activity against HIV1 pseudovirus infected in Jurkat cells coexpressing GFP assessed as viral growth inhibition up to 100 uM incubated for 2 to 8 hrs prior to infection measured after 48 hrs by flow cytofluorimetric analysis. Type of data set: functional, organism-based.
In data set [11] the test system is Human immunodeficiency virus 1. The data set can be described thus: Antiviral activity against HIV1 pseudovirus infected in Jurkat cells coexpressing GFP assessed as viral growth inhibition incubated for 2 to 8 hrs prior to infection measured after 48 hrs by flow cytofluorimetric analysis. Format: functional, organism-based.
A short description of data set [12]: Selectivity ratio of CC50 for african green monkey Vero cells to EC50 for acyclovir-resistant HSV1 L2. Format: ADME, cell-based. To be noted: read-out: Ratio CC50/EC50.
Data set [13] can be described thus: Selectivity ratio of CC50 for african green monkey Vero cells to EC50 for HSV1 L2. Format: ADME, cell-based. The settings on record: read-out: Ratio CC50/EC50.
The subject of data set [14] is Human immunodeficiency virus 1. The data set can be described thus: Antiviral activity against HIV1 pseudovirus infected in Jurkat cells coexpressing GFP assessed as viral growth inhibition at 20 uM incubated for 2 to 8 hrs prior to infection measured after 48 hrs by flow cytofluorimetric analysis. Type of data set: functional. To be noted: Human immunodeficiency virus 1, Jurkat; read-out: GI.

For data set [15], the system named is Human alphaherpesvirus 1. The data set can be described thus: Resistance ratio of EC50 for acyclovir-resistant HSV1 L2 to EC50 for HSV1 L2. Type of data set: functional.
The subject of data set [16] is Human immunodeficiency virus 1. The data set can be described thus: Antiviral activity against HIV1 pseudovirus by cell-based assay. Format: functional, organism-based.

The values that follow come from ChEMBL document CHEMBL2146431, “Phosphoramidate derivatives of acyclovir: synthesis and antiviral activity in HIV-1 and HSV-1 models in vitro” (Bioorg Med Chem, 2012).

pEC50: −log10 of the molar value. Active and inactive are the calls of the source. The rule behind the calls is not given here.

In the case of `Nc1nc2c(ncn2COCCOP(=O)(N2CCOCC2)N2CCOCC2)c(=O)[nH]1`, the CC50 at 72 h in [1] is more than 2000 µM. Moreover, the Activity entry in data set [2] is “Non-toxic”. For the same molecule, the pEC50 in data set [3] and in data set [4] was less than 3.30 in each case. Further, the values for the t1/2 in data set [5], in [6] and in [8] were 18 h, 0.5 h and more than 120 h, respectively. The Stability entry in [7] was “Stable”.

Turning to `CCCCCCNP(=O)(O)OCCOCn1cnc2c(=O)[nH]c(N)nc21.N`, the Activity result in [2] is recorded as “Non-toxic”. Moreover, the t1/2 in data set [9] was 48 h; in data set [6] it was less than 0.083 h; in data set [8], more than 120 h. Moreover, in data set [10], the “growth inhibition (GI)” value was “Active”. The “growth inhibition (GI)” value in [11] is “Dose-dependent effect”.

In the case of `Nc1nc2c(ncn2COCCOP(=O)(N2CCCC2)N2CCCC2)c(=O)[nH]1`, in [2], the Activity result is recorded as “Non-toxic”. In addition, the t1/2 amounted to 3 h in [5], 0.167 h in [6] and 18 h in data set [8]. Also, in data set [7], the Stability entry was “Stable”.

For `CN(C)CCNP(=O)(O)OCCOCn1cnc2c(=O)[nH]c(N)nc21.N`, in data set [2], the Activity entry is listed as “Non-toxic”. In addition, the t1/2 in [9] was 48 h; in data set [6] it was less than 0.083 h; in data set [8], more than 120 h.

With `N.Nc1nc2c(ncn2COCCOP(=O)(O)NCCN2CCOCC2)c(=O)[nH]1`, the Activity entry in data set [2] is listed as “Non-toxic”. Further, the t1/2 in [9] was 48 h; in [6], less than 0.083 h; in data set [8] it was more than 120 h. The “growth inhibition (GI)” value in data set [10] was “Active”. Further, in data set [11], the “growth inhibition (GI)” value is “Dose-dependent effect”.

In [1], `Nc1nc(=O)c2ncn(COCCOP(=O)(O)O)c2[nH]1` came in with a cytotoxic concentration (CC50) at 72 h of more than 2000 µM. Further, in data set [2], the Activity entry is recorded as “Non-toxic”. The pEC50 is 4.70 in data set [3] and 4.39 in data set [4]. Further, the selectivity ratio in data set [12] is more than 49; in data set [13], more than 100.

For the molecule `CCCCCCNP(=O)(NCCCCCC)OCCOCn1cnc2c(=O)[nH]c(N)nc21`, in [2], the Activity entry is given as “Non-toxic”. Moreover, the t1/2 in data set [5] amounted to 1 h; in data set [6], 0.083 h; in data set [8] it was 5 h. In addition, the Stability result in data set [7] is given as “Stable”.

In [1], `N.Nc1nc2c(ncn2COCCOP(=O)(O)N2CCOCC2)c(=O)[nH]1` returned a half-maximal cytotoxic concentration (CC50) at 72 h of more than 2000 µM. Moreover, the Activity entry in data set [2] is recorded as “Non-toxic”. Moreover, the t1/2 was more than 120 h in data set [9], less than 0.083 h in data set [6] and more than 120 h in data set [8]. Also, the pEC50 in data set [3] was 5.01; in data set [4], 4.60. In addition, the inhibition of growth at 20 µM in data set [14] came to 50%. The selectivity ratio in data set [12] was more than 80; in data set [13] it was more than 206. The “growth inhibition (GI)” value in data set [10] is “Active”. Moreover, the “growth inhibition (GI)” value in [11] was “Dose-dependent effect”. Also, in data set [15], the “Ratio EC50” value was determined as 2.5.

The molecule `Nc1nc2c(ncn2COCCO)c(=O)[nH]1` [ACYCLOVIR] yielded a 50% cytotoxic concentration (CC50) at 72 h in [1] of more than 2000 µM. The pEC50 was 5.77 in [3] and 3.28 in data set [4]. Besides, the selectivity ratio in data set [12] was more than 3.8; in data set [13], more than 1180. In addition, the “growth inhibition (GI)” value in [10] is “Active”. For the same molecule, the “growth inhibition (GI)” value in [11] was “Dose-dependent effect”.

Regarding `Nc1nc2c(ncn2COCCOP(N)(N)=O)c(=O)[nH]1`, the Activity result in [2] is listed as “Non-toxic”. Further, the values for the t1/2 in data set [5], in data set [6] and in data set [8] were less than 1 h, 0.083 h and 4 h, respectively. Also, the Stability entry in data set [7] is given as “Stable”.

Take `N.Nc1nc2c(ncn2COCCOP(=O)(O)N2CCCC2)c(=O)[nH]1`: in data set [2], the Activity result was “Non-toxic”. The t1/2 in [9] was 96 h; in [6], less than 0.083 h; in [8], more than 120 h. The “growth inhibition (GI)” value in data set [10] is “Active”. For the same molecule, the “growth inhibition (GI)” value in data set [11] is “Dose-dependent effect”.

In the case of `Cc1cn([C@H]2C[C@H](N=[N+]=[N-])[C@@H](CO)O2)c(=O)[nH]c1=O` [ZIDOVUDINE], the negative logarithm of the EC50 (pEC50) in data set [16] was 8.52; in data set [11] (Human immunodeficiency virus 1, Jurkat), 7.05.

In the case of `CCCN(CCC)P(=O)(O)OCCOCn1cnc2c(=O)[nH]c(N)nc21.N`, the 50% cytotoxic concentration (CC50) at 72 h in [1] was more than 2000 µM. For the same molecule, in [2], the Activity result was “Non-toxic”. Further, the results for the t1/2 in [9], in data set [6] and in [8] were 96 h, less than 0.083 h and more than 120 h, respectively. Further, the negative logarithm of the EC50 (pEC50) was 4.82 in data set [3] and 4.43 in data set [4]. Further, the figures for the selectivity ratio in data set [12] and in data set [13] were more than 54 and more than 133, respectively. In addition, the “growth inhibition (GI)” value in data set [10] is “Active”. The “growth inhibition (GI)” value in data set [11] is “Dose-dependent effect”. The “Ratio EC50” value in data set [15] was found to be 2.5.

In the case of `CN(C)CCCNP(=O)(O)OCCOCn1cnc2c(=O)[nH]c(N)nc21.N`, in data set [2], the Activity entry was “Non-toxic”. Also, the results for the t1/2 in [9], in data set [6] and in data set [8] were 48 h, less than 0.083 h and more than 120 h, respectively.
